Read-outs that look alike come from different tables or passages of the source.
Assays:
[1] = test system: Plasmopara viticola; assay: Example N: in vivo test on Plasmopara viticola (downy mildew, vine/protective); conditions: 144 h, vine, protective, assessment 6 days after inoculation, read-out: % Wirkungsgrad
Method: Emulsifier: 1 part by weight alkylaryl polyglycol ethers For the preparation of a suitable active substance preparation, 1 part by weight of active substance is mixed with the stated quantities of solvent and emulsifier and the concentrate is diluted to the desired concentration with water. For the testing for protective activity, young plants are sprayed with the active substance preparation at the stated application dosage. […] The plants are then moistened and placed in an incubation cabin for 1 day. 6 days after the inoculation, the assessment takes place.

[2] = test system: Rhynchosporium secalis; assay: Example S: in vivo test on Rhynchosporium secalis (leaf scald in barley/protective); conditions: 336 h, barley, protective, 1000 ppm active substance, assessed 14 days after inoculation, read-out: % Wirkungsgrad (activity level)
Method: (§1) Solvent: 49 parts by weight N,N-dimethylacetamide Emulsifier: 1 part by weight alkylaryl polyglycol ethers For the preparation of a suitable active substance preparation, 1 part by weight of active substance is mixed with the stated quantities of solvent and emulsifier and the concentrate is diluted to the desired concentration with water. For the testing for protective activity, young plants are sprayed with the active substance preparation at the stated application dosage. After drying of the spray coating, the plants are sprayed with spores with a spore suspension of Rhynchosporium secalis. […] 14 days after the inoculation, the assessment takes place.

[3] = physchem
[4] = test system: Venturia inaequalis; assay: Example O: in vivo test on Venturia inaequalis (apple scab/protective); conditions: 240 h, protective, assessment 10 days after inoculation, read-out: % Wirkungsgrad
Method in brief: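 Young plants received a preventive spray of compound formulated as an emulsifier-containing aqueous dilution at the given application rate, then were inoculated with apple scab fungus. Disease was scored 10 days post-inoculation.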

[5] = test system: Fusarium nivale (var. majus); assay: whole plant or invertebrate; type: in vivo; conditions: Microdochium nivale, in Triticum aestivum, 120 h, read-out: % Wirkungsgrad (activity level)
[6] = test system: Alternaria solani; assay: Example M: in vivo test on Alternaria solani (leaf blotch disease/tomato/protective); conditions: 168 h, tomato, protective, 500 ppm active substance, assessed 7 days after inoculation, read-out: % Wirkungsgrad (activity level)
Method in brief: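 Alternaria solani infection on tomato scored 7 days post-inoculation. Before inoculation, young plants received a protective spray at the stated application dose; formulation was compound mixed with N,N-dimethylformamide and emulsifier, water-diluted.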

[7] = test system: Sphaerotheca fuliginea; assay: Example L: in vivo test on Sphaerotheca fuliginea (powdery mildew on cucumber/protective); conditions: Podosphaera fuliginea, 168 h, cucumber, protective, assessment 7 days after inoculation, read-out: % Wirkungsgrad
Method in brief: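 Young cucumber plants sprayed at stated dosage with compound in DMF/alkylaryl polyglycol ether emulsifier diluted in water; inoculated with S. fuliginea spores one day later. Kept in greenhouse at 70% relative humidity, 23° C; protective activity assessed 7 days after inoculation.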

[8] = test system: Septoria tritici; assay: Example R: in vivo test on Septoria tritici (leaf blotch in wheat/protective); conditions: Zymoseptoria tritici, 504 h, wheat, protective, 1000 ppm active substance, assessed 21 days after inoculation, read-out: % Wirkungsgrad (activity level)
Method: as §1, with “with” for “with spores with”, “Septoria tritici.” for “Rhynchosporium secalis.”, “21” for “14”

[9] = test system: Fusarium graminearum; assay: whole plant or invertebrate; type: in vivo; conditions: in Hordeum vulgare, 120 h, read-out: % Wirkungsgrad (activity level)
[10] = test system: Fusarium proliferatum; assay: Example I: production of fumonisin FB1 by Fusarium proliferatum (microtitre plates); type: cell-based; conditions: 120 h
[11] = test system: Leptosphaeria nodorum; assay: Example Q: in vivo test on Leptosphaeria nodorum (glume blotch in wheat/protective); conditions: Parastagonospora nodorum, 192 h, wheat, protective, assessment 8 days after inoculation, read-out: % Wirkungsgrad
Method: as §1, with “Leptosphaeria nodorum.” for “Rhynchosporium secalis.”, “8” for “14”

[12] = test system: Botrytis cinerea; assay: Example P: in vivo test on Botrytis cinerea (gray mould on bean/protective); conditions: 48 h, bean, protective, 250 ppm active substance, assessed 2 days after inoculation, read-out: % Wirkungsgrad (activity level)
Method in brief: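 Infection blotch size on leaves was scored 2 days after placing 2 Botrytis-colonised agar pieces per leaf. Inoculation followed drying of a protective spray applied to young plants at the stated dosage. Spray was prepared by diluting compound with solvent and alkylaryl polyglycol ether emulsifier in water.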

[13] = test system: Fusarium graminearum; assay: microbe, parasite or virus in culture; type: cell-based
[14] = test system: Mycosphaerella graminicola; assay: Example G: in vivo test on Mycosphaerella graminicola (wheat leaf blotch disease); conditions: Zymoseptoria tritici, wheat plants sprayed 24 hours before inoculation, scored after 21 to 28 days, read-out: % Wirkungsgrad
Method: In Vivo Test on Mycosphaerella Graminicola (Wheat Leaf Blotch Disease) An aqueous suspension of the active substance was prepared by homogenization of a mixture of acetone/Tween/dimethyl sulphoxide and subsequent dilution with water to the desired concentration. Wheat plants (variety: Scipion) are sown in cultivation dishes on a peat-pozzolanic earth substrate (50/50) at 12° C. and sprayed at the first-leaf stage (10 cm size) with the aqueous suspension described above. As a control, plants are sprayed with an aqueous solution with no active substance. After 24 hours the plants are inoculated by spraying with an aqueous suspension of Mycosphaerella graminicola spores (500,000 spores per ml). The spores are derived from a 7 day-old culture. […] After 21 to 28 days they are scored in comparison with the control plants.

[15] = test system: Botrytis cinerea; assay: Example B: in vivo test on Botrytis cinerea (grey mould on cucumbers); conditions: cucumber plants sprayed 24 hours before inoculation, scored after 5-7 days, read-out: % Wirkungsgrad
Method: In Vivo Test on Botrytis Cinerea (Grey Mould on Cucumbers) An aqueous suspension of the active substance was prepared by homogenization of a mixture of acetone/Tween/dimethyl sulphoxide and subsequent dilution with water to the desired concentration. Cucumber plants (variety: Vert petit de Paris) are sown in cultivation dishes on a peat-pozzolanic earth substrate (50/50) at 18-20° C. and sprayed at the cotyledon stage Z11 with the aqueous suspension described above. As a control, plants are sprayed with an aqueous solution with no active substance. […] The spores are derived from a 15 day-old culture which are suspended in the following nutrient solution: • 20 g/l gelatine • 50 g/l D-fructose • 2 g/l NH4NO3 • 1 g/l KH2PO4 The inoculated cucumber plants are kept for 5-7 days in a climatic chamber at […] After 5-7 days they are scored in comparison with the control plants.

[16] = test system: Sphaerotheca fuliginea; assay: Example D: in vivo test on Sphaerotheca fuliginea (powdery mildew on cucumber); conditions: Podosphaera fuliginea, 288 h, cucumber plants sprayed 24 hours before inoculation, scored after 12 days, read-out: % Wirkungsgrad
Method: In Vivo Test on Sphaerotheca Fuliginea (Powdery Mildew on Cucumber) An aqueous suspension of the active substance was prepared by homogenization of a mixture of acetone/Tween/dimethyl sulphoxide and subsequent dilution with water to the desired concentration. Cucumber plants (variety: Vert petit de Paris) are sown in cultivation dishes on a peat-pozzolanic earth substrate (50/50) at 20/23° C. and at the cotyledon stage Z10 sprayed with the aqueous suspension described above. As a control, plants are sprayed with an aqueous solution with no active substance. After 24 hours the plants are inoculated by spraying with an aqueous suspension of Sphaerotheca fuliginea spores (100,000 spores per ml). The spores are derived from a contaminated plant. The inoculated cucumber plants are incubated at ca. 20/25° C. at a relative atmospheric humidity of 60/70%. After 12 days they are scored in comparison with the control plants.

[17] = Fusarium proliferatum growth, OD 620, 5 days, read-out: % Inhibition des Pilzwachstums bei 50 μM
[18] = Fusarium proliferatum, 5 days at 20° C., HPLC-MS/MS, read-out: % Inhibition der FB1 produktion bei 50 μM
[19] = 72 h, read-out: % Inhibition des Pilzwachstums bei 50 μM
[20] = 168 h, read-out: % Inhibition der DON/AcDON produktion bei 50 μM
[21] = LogPA (logP of the stated pure compound or, in a mixture, of the main isomer, 1-substituted 3-aryl-1H-pyrazole)

Row | Structure (SMILES) | pest or weed control at 100 ppm [1] | pest or weed control at 1000 ppm [2] | chromatographic logP ([3]; LogPA) | pest or weed control at 100 ppm [4] | pest or weed control at 1000 ppm [5] | pest or weed control at 500 ppm [6] | pest or weed control at 500 ppm [7] | pest or weed control at 1000 ppm [8] | pest or weed control at 1000 ppm [9] | inhibition at 50 µM [10, 17] | inhibition at 50 µM [10, 18] | pest or weed control at 1000 ppm [11] | pest or weed control at 250 ppm [12] | inhibition at 50 µM [13, 19] | inhibition at 50 µM [13, 20] | chromatographic logP [3, 21] | pest or weed control at 500 ppm [14] | pest or weed control at 500 ppm [15] | pest or weed control at 500 ppm [16]
1 | CC(C)C(=O)Nc1cc(-c2cn(CC3CC3)nc2-c2ccc(F)cc2)ccn1 [Compound 225] | 90% | 90% | 2.54 | 96% | 100% | 95% | 100% | 100% | 100% | 93% | 100% | 86% | 96% | 92% | 89% |  |  |  | 
2 | CC(C)n1cc(-c2ccnc(NC(=O)[C@H](C)O)c2)c(-c2ccc(F)cc2)n1 [Compound 192] | 94% | 71% | 2.14 | 95% | 100% | 100% | 85% | 100% | 100% |  |  | 86% | 100% |  |  |  |  |  | 
3 | CCC(=O)Nc1cc(-c2cn(CC3CC3)nc2-c2ccc(F)cc2)ccn1 [Compound 214] | 88% | 100% | 2.2 | 88% | 100% | 95% | 100% | 100% | 100% | 96% | 100% | 71% | 100% | 100% | 93% |  |  |  | 
4 | Fc1cccc(F)c1-c1c(-c2ccncc2)cnn1C1CCCC1 [Compound 17] |  |  |  |  |  |  |  |  |  |  |  |  |  |  |  | 1.74 | 88% | 83% | 80%
5 | CCC(=O)Nc1cc(-c2cn(CC(F)F)nc2-c2ccc(F)cc2)ccn1 [Compound 215] |  | 90% | 1.99 | 96% | 100% | 94% | 100% | 94% | 100% | 94% | 100% | 71% | 98% |  |  |  |  |  | 
6 | CC(C)Cn1cc(-c2ccnc(N)n2)c(-c2ccc(F)cc2)n1 [Compound 184] |  | 71% | 1.81 | 92% | 100% | 95% | 95% | 100% | 100% |  |  | 88% | 100% |  |  |  |  |  | 
7 | CC(C)C(=O)Nc1cc(-c2cn(CC(F)F)nc2-c2ccc(F)cc2)ccn1 [Compound 218] |  | 100% | 2.29 | 95% | 92% | 95% | 100% | 100% | 100% | 79% | 100% | 93% | 98% |  |  |  |  |  | 
8 | CC(C)n1cc(-c2ccncc2)c(-c2c(F)cccc2F)n1 [Compound 14] |  |  |  |  |  |  |  |  |  |  |  |  |  |  |  | 1.4 | 88% | 100% | 80%
9 | CCC(=O)Nc1cc(-c2cn(C(C)CC)nc2-c2ccc(F)cc2)ccn1 (stereo not shown) [Compound 164] |  | 100% |  | 97% | 100% | 95% | 100% | 100% | 100% | 97% | 100% | 93% |  | 100% | 99% | 2.46 |  |  | 
10 | CC(C)Cn1cc(-c2ccncc2)c(-c2c(F)cccc2F)n1 [Compound 13] |  |  |  |  |  |  |  |  |  |  |  |  |  |  |  | 1.62 | 95% | 100% | 90%

— US20110183978A1, “Phenylpyri(mi)dinylazoles” (Bayer CropScience AG, priority 2009, published 2011)
